One assay concerns the target Beta-lactamase (Pseudomonas aeruginosa, UniProt Q79MP6).
A further assay addresses Beta-lactamase VIM-2 (Pseudomonas aeruginosa, UniProt Q9K2N0).

Each structure is given as a SMILES string.

Beta-lactamase, sequence (Q79MP6 whole entry): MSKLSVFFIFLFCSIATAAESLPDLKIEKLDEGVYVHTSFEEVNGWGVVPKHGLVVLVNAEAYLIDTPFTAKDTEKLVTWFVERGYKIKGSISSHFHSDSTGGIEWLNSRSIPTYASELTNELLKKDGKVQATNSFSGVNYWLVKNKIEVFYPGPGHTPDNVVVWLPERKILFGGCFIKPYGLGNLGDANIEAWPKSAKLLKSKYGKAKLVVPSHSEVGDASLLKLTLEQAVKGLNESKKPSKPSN
Description for Beta-lactamase VIM-2: Inhibition of Pseudomonas aeruginosa beta-lactamase VIM-2 assessed as hydrolysis of nitrocefin by UV spectrophotometric analysis

The term Ki denotes a dissociation constant, usually derived from enzyme kinetics or from competition with a known ligand. A low value points to a stronger hold on the target. Regarding `O=C(O)CS` [THIOGLYCOLIC ACID], the Ki on Beta-lactamase is 180 nM.
Still for that read-out and setting: for `COC1OC(C)=Cc2oc3cc(O)c(O)c(C(=O)O)c3c(=O)c21` (stereo not given) the value was 180 nM.
As for `CC/C(C(=O)O)=C(\CC)C(=O)O`, the Ki on Beta-lactamase VIM-2 worked out at 120000 nM.
For `O=C(O)CCS` [MERCAPTOPROPIONIC ACID], the Ki on Beta-lactamase came to 180 nM.
The same measure, in the same setting: for `C[C@@H](O)[C@H]1C(=O)N2C(C(=O)O)=C(Sc3cc4ccccc4s3)[C@H](C)[C@H]12` the value was 180 nM.
